Laboratory results published in patent US10219513B2, “Safening 4-amino-3-chloro-6-(4-chloro-2-fluoro-3-methoxyphenyl)-5-fluoropyridine-2-carboxylic acid compositions in Brassica species and methods of use thereof” (Dow AgroSciences LLC, priority 2016, dated 2019).
Where “and” joins values, the source holds several entries; their conditions need not be identical. Identical values can stand only once.

Assays:
[1] = test system: Brassica juncea (Juncea canola or brown mustard, BRSJU); assay: Greenhouse postemergence application, visual injury after 20-22 d, BRSJU
Experimental: (§1) Seeds of the desired test plant species were planted in Sun Gro MetroMix® 306 planting mixture, which typically has a pH of 6.0 to 6.8 and an organic matter content of about 30 percent, in plastic pots with a surface area of 103.2 square centimeters (cm^2). […] The plants were grown for 7-36 days (d) in a greenhouse with an approximate 14-hour (h) photoperiod which was maintained at about 23° C. during the day and 22° C. during the night. Nutrients and water were added on a regular basis and supplemental lighting was provided with overhead metal halide 1000-Watt lamps as necessary. The plants were employed for testing when they reached the second or third true leaf stage.
(§2) An aliquot of formulated benzyl 4-amino-3-chloro-6-(4-chloro-2-fluoro-3-methoxyphenyl)-5-fluoropyridine-2-carboxylate (florpyrauxifen-benzyl; 300 grams active ingredient per liter (g ai/L) suspension concentrate (SC)) was placed in a 25 mL glass vial and diluted in a volume of 1.25% (v/v) aqueous Agri-dex crop oil concentrated to obtain a stock solution. […] The concentrated stock solutions were diluted with an aqueous mixture of 1.25% v/v of aqueous Agri-dex crop oil concentrate to provide the appropriate application rates. Compound requirements are based upon a 12 milliliter (mL) application volume at a rate of 187 liters per hectare (L/ha). Stock solutions of the formulated materials were prepared following the same procedure. Spray solutions of the compound mixtures were prepared by adding the stock solutions to the appropriate amount of dilution solution to form a 12 mL spray solution. Formulated compounds were applied to the plant material with an overhead Mandel track sprayer equipped with 8002E nozzles calibrated to deliver 187 L/ha over an application area of 0.503 square meters (m^2) at a spray height of 18 inches (43 centimeters (cm)) above average plant canopy. Control plants were sprayed in the same manner with the solvent blank.
(§3) The treated plants and control plants were placed in a greenhouse as described above and watered by sub-irrigation to prevent wash-off of the test compounds. After 20-22 d, the condition of the test plants as compared with that of the control plants was determined visually and scored on a scale of 0 to 100 percent where 0 corresponds to no injury and 100 corresponds to complete kill. Colby's equation was used to determine the herbicidal effects expected from the mixtures.
(§4) Benzyl 4-amino-3-chloro-6-(4-chloro-2-fluoro-3-methoxyphenyl)-5-fluoropyridine-2-carboxylate (florpyrauxifen-benzyl, 300 g ai/L SC) was combined in two-, three-, and four-way mixtures with one or more of the following: clopyralid-olamine (as Lontrel™ 35A Herbicidal Concentrate), quinclorac (as Facet 75DF), isoxadifen-ethyl (100 g/L SC), cloquintocet-mexyl (120 g/L EC) or mefenpyr-diethyl (as mefenpyr-diethyl 15WP). The mixtures were applied to kale/Chinese kale (Brassica alboglabra, BRSAG), Juncea canola or brown mustard (Brassica juncea, BRSJU), rutabaga (Brassica napus var. napobrassica, BRSNA), all varieties of canola and oilseed rape (Brassica napus, BRSNN), Nexera™ canola (Brassica napus, BRSNN-NEX), winter oilseed rape (Brassica napus, BRSNW), Roundup Ready® canola (Brassica napus, RR-BRSNN), and turnip or Polish canola (Brassica rapa, BRSRR), and the phytotoxicity of the compositions was measured.
(§5) Colby's equation was used to determine the herbicidal effects expected from the mixtures evaluated in the described trials (Colby, S. R. Calculation of the synergistic and antagonistic response of herbicide combinations. Weeds 1967, 15, 20-22.).
(§6) The following equation was used to calculate the expected activity of mixtures containing two active ingredients, A and B: Expected=A+B−(A×B/100) • A=observed efficacy of active ingredient A at the same concentration as used in the mixture; • B=observed efficacy of active ingredient B at the same concentration as used in the mixture.

[2] = test system: Brassica napus (all varieties of canola and oilseed rape, BRSNN); assay: Greenhouse postemergence application, visual injury after 20-22 d, BRSNN
Experimental: as §1, §2, §3, §4, §5, §6

[3] = test system: Brassica napus (winter oilseed rape, BRSNW); assay: Greenhouse postemergence application, visual injury after 20-22 d, BRSNW
Experimental: as §1, §2, §3, §4, §5, §6

[4] = test system: Brassica rapa (turnip or Polish canola, BRSRR); assay: Greenhouse postemergence application, visual injury after 20-22 d, BRSRR
Experimental: as §1, §2, §3, §4, §5, §6

[5] = test system: Brassica napus (Roundup Ready canola, RR-BRSNN); assay: Greenhouse postemergence application, visual injury after 20-22 d, RR-BRSNN
Experimental: as §1, §2, §3, §4, §5, §6

[6] = florpyrauxifen-benzyl 2.5 g ai/ha alone
[7] = florpyrauxifen-benzyl 5 g ai/ha alone
[8] = florpyrauxifen-benzyl 10 g ai/ha alone
[9] = florpyrauxifen-benzyl alone 2.5 g ai/ha
[10] = florpyrauxifen-benzyl alone 5 g ai/ha
[11] = florpyrauxifen-benzyl alone 10 g ai/ha
[12] = postemergence application, greenhouse, application rate (g ai/ha) varies

## COc1c(Cl)ccc(-c2nc(C(=O)OCc3ccccc3)c(Cl)c(N)c2F)c1F [Florpyrauxifen-benzyl, benzyl 4-amino-3-chloro-6-(4-chloro-2-fluoro-3-methoxyphenyl)-5-fluoropyridine-2-carboxylate]
[1]; BRSJU, 2.5 g ai/ha
  % Visual Injury Obs: 7%
[1]; BRSJU, 5 g ai/ha
  % Visual Injury Obs: 12%
[1]; BRSJU, 10 g ai/ha
  % Visual Injury Obs: 18%
[1]; BRSJU, florpyrauxifen-benzyl alone 2.5 g ai/ha
  Obs % visual injury: 7%
[1]; BRSJU, florpyrauxifen-benzyl alone 5 g ai/ha
  Obs % visual injury: 12%
[1]; BRSJU, florpyrauxifen-benzyl alone 10 g ai/ha
  Obs % visual injury: 18%
[1]; [6]
  % Visual Injury BRSJU Obs: 7%
  % Visual Injury Obs: 7%
[1]; [7]
  % Visual Injury BRSJU Obs: 12%
  % Visual Injury Obs: 12%
[1]; [8]
  % Visual Injury BRSJU Obs: 18%
  % Visual Injury Obs: 18%
[1]; [9]
  Obs % visual injury BRSJU: 7%
[1]; [10]
  Obs % visual injury BRSJU: 12%
[1]; [11]
  Obs % visual injury BRSJU: 18%
[2]; BRSNN, 2.5 g ai/ha
  % Visual Injury Obs: 7%
[2]; BRSNN, 5 g ai/ha
  % Visual Injury Obs: 12%
[2]; BRSNN, 10 g ai/ha
  % Visual Injury Obs: 18%
[2]; BRSNN, florpyrauxifen-benzyl alone 2.5 g ai/ha
  Obs % visual injury: 7%
[2]; BRSNN, florpyrauxifen-benzyl alone 5 g ai/ha
  Obs % visual injury: 12%
[2]; BRSNN, florpyrauxifen-benzyl alone 10 g ai/ha
  Obs % visual injury: 18%
[2]; [6]
  % Visual Injury BRSNN Obs: 7%
  % Visual Injury Obs: 7%
[2]; [7]
  % Visual Injury BRSNN Obs: 12%
  % Visual Injury Obs: 12%
[2]; [8]
  % Visual Injury BRSNN Obs: 18%
  % Visual Injury Obs: 18%
[2]; [9]
  Obs % visual injury BRSNN: 7%
[2]; [10]
  Obs % visual injury BRSNN: 12%
[2]; [11]
  Obs % visual injury BRSNN: 18%
[3]; BRSNW, 2.5 g ai/ha
  % Visual Injury Obs: 8%
[3]; BRSNW, 5 g ai/ha
  % Visual Injury Obs: 13%
[3]; BRSNW, 10 g ai/ha
  % Visual Injury Obs: 18%
[3]; BRSNW, florpyrauxifen-benzyl alone 2.5 g ai/ha
  Obs % visual injury: 8%
[3]; BRSNW, florpyrauxifen-benzyl alone 5 g ai/ha
  Obs % visual injury: 13%
[3]; BRSNW, florpyrauxifen-benzyl alone 10 g ai/ha
  Obs % visual injury: 18%
[3]; [6]
  % Visual Injury BRSNW Obs: 8%
  % Visual Injury Obs: 8%
[3]; [7]
  % Visual Injury BRSNW Obs: 13%
  % Visual Injury Obs: 13%
[3]; [8]
  % Visual Injury BRSNW Obs: 18%
  % Visual Injury Obs: 18%
[3]; [9]
  Obs % visual injury BRSNW: 8%
[3]; [10]
  Obs % visual injury BRSNW: 13%
[3]; [11]
  Obs % visual injury BRSNW: 18%
[3]; [12]
  % Visual Injury BRSNW Obs: 8% and 13% and 18%
[4]; BRSRR, 2.5 g ai/ha
  % Visual Injury Obs: 6%
[4]; BRSRR, 5 g ai/ha
  % Visual Injury Obs: 9%
[4]; BRSRR, 10 g ai/ha
  % Visual Injury Obs: 14%
[4]; BRSRR, florpyrauxifen-benzyl alone 2.5 g ai/ha
  Obs % visual injury: 6%
[4]; BRSRR, florpyrauxifen-benzyl alone 5 g ai/ha
  Obs % visual injury: 9%
[4]; BRSRR, florpyrauxifen-benzyl alone 10 g ai/ha
  Obs % visual injury: 14%
[4]; [6]
  % Visual Injury BRSRR Obs: 6%
  % Visual Injury Obs: 6%
[4]; [7]
  % Visual Injury BRSRR Obs: 9%
  % Visual Injury Obs: 9%
[4]; [8]
  % Visual Injury BRSRR Obs: 14%
  % Visual Injury Obs: 14%
[4]; [9]
  Obs % visual injury BRSRR: 6%
[4]; [10]
  Obs % visual injury BRSRR: 9%
[4]; [11]
  Obs % visual injury BRSRR: 14%
[4]; [12]
  % Visual Injury BRSRR Obs: 6% and 9% and 14%
[5]; RR-BRSNN, 2.5 g ai/ha
  % Visual Injury Obs: 6%
[5]; RR-BRSNN, 5 g ai/ha
  % Visual Injury Obs: 9%
[5]; RR-BRSNN, 10 g ai/ha
  % Visual Injury Obs: 19%
[5]; RR-BRSNN, florpyrauxifen-benzyl alone 2.5 g ai/ha
  Obs % visual injury: 6%
[5]; RR-BRSNN, florpyrauxifen-benzyl alone 5 g ai/ha
  Obs % visual injury: 9%
[5]; RR-BRSNN, florpyrauxifen-benzyl alone 10 g ai/ha
  Obs % visual injury: 19%
[5]; [6]
  % Visual Injury Obs: 6%
  % Visual Injury RR-BRSNN Obs: 6%
[5]; [7]
  % Visual Injury Obs: 9%
  % Visual Injury RR-BRSNN Obs: 9%
[5]; [8]
  % Visual Injury Obs: 19%
  % Visual Injury RR-BRSNN Obs: 19%
[5]; [9]
  Obs % visual injury RR-BRSNN: 6%
[5]; [10]
  Obs % visual injury RR-BRSNN: 9%
[5]; [11]
  Obs % visual injury RR-BRSNN: 19%
